Test results published in patent publication EP0671173A1, “Use of a tricyclic derivative for producing a medicament for the treatment of cognitive and memory disorders” (ADIR ET COMPAGNIE, priority 1994, dated 1995).

What was measured:
[1] = test system: souris mâles de la lignée BALB/c; assay: T-maze: acquisition and retention of a simple spatial discrimination in the mouse; format: in vivo; conditions: 10 mg/kg i.p. 30 minutes before the test; for Acquisition de la discrimination : Nombre de réponses correctes sur les 20 premiers essais de l'épreuve: day 3, 12 BALB/c mice per group; for Acquisition de la discrimination : Nombre de réponses correctes sur les 20 premiers essais de l'épreuve / Rétention de la discrimination : Essais au critère: mean ± standard error; for Rétention de la discrimination : Essais au critère: day 4 (24 h after acquisition), criterion 5/5; for Rétention : Réponses correctes sur les cinq premiers essais: placebo 3,0 ± 0,21
Text: Comparaison des effets de la tianeptine et de l'isomère (+) de celle-ci sur l'alternance spontanée, l'acquisition et la rétention d'une discrimination spatiale simple (labyrinthe en T) chez la souris.
Le principe du test s'appuie sur la tendance innée qu'ont les mammifères confrontés à un choix entre deux directions à prendre, à aller explorer le lieu qui leur est le moins familier. Un animal placé plusieurs fois successivement à l'entrée d'un labyrinthe en T se dirigera de préférence vers le bras qu'il n'a pas visité précédemment. Pour que ce comportement apparaisse, il est évidemment nécessaire que l'animal se souvienne du dernier bras visité. Ce souvenir met en jeu la mémoire dite de travail. La souris est soumise à une phase d'apprentissage (acquisition) pendant laquelle elle doit choisir plusieurs fois, de suite entre les deux bras, jusq'uà ce qu'elle ait opté cinq fois de suite pour un bras déterminé par l'expérimentateur. Pour apprécier si l'animal a bien retenu ce qu'il a appris au cours de l'épreuve d'acquisition, il est replacé 24 heures plus tard dans la même situation. Le degré de rétention sera mesuré par le nombre d'épreuves subies avant la réussite de cinq essais consécutifs.
Animaux : 36 souris mâles de la lignée BALB/c, vierges de toute expérimentation et âgées de 14 à 16 semaines, sont utilisées. Elles sont placées, 15 jours avant le début des expériences, dans des cages individuelles (animalerie climatisée (22°C) et pourvue d'un cycle artificiel lumière-obscurité de 12 heures (7h ON)).
Appareil : C'est un labyrinthe en T construit en plexiglas de couleur grise. Le couloir central et les deux bras d'arrivée mesurent 35 cm de long, 10 cm de large et 20 cm de haut. Le compartiment de départ (10 x 12 cm) est séparé du couloir central par une porte à guillotine. L'entrée de chaque bras est également pourvue d'une porte. L'appareil utilisé est semi-automatique : l'alimentation des mangeoires, l'ouverture et la fermeture des portes sont commandées par un micro-ordinateur selon le protocole pré-établi.
Protocole : Toutes les épreuves se déroulent entre 9h et 16h et durant 4 jours (de J1 à J4) sans interruption. La ration alimentaire des animaux est réduite de façon à atteindre un poids corporel de 83-84 % du poids ad libitum pour les épreuves d'habituation (J1 et J2) et de 87-88 % lors des épreuves d'alternance et de discrimination spatiale (J3 et J4).
Habituation (J1-J2) : L'expérience proprement dite est précédée de deux séances d'habituation de 10 minutes (exploration libre, une séance par jour). L'animal est simplement placé dans l'appareil toutes portes ouvertes.
Alternances spontanées et acquisition de la discrimination (J3) : Ces deux épreuves ont lieu le lendemain sans interruption. Elles sont destinées à mesurer l'alternance (6 premiers essais) et la vitesse d'acquisition de la discrimination spatiale (essais suivants). Lors des 6 premiers essais, la nourriture est disposée à l'extrémité de chacun des deux bras. Lors de chaque essai, l'animal est placé dans le compartiment de départ pendant 30 secondes (intervalle entre essais). La porte donnant accès au couloir central est ouverte et la souris peut choisir entre les deux bras où elle reste enfermée pendant 30 secondes. On constate que l'animal normal alterne ses choix successifs (65 % d'alternance environ). Apartir du 6ème essai, la nourriture n'est plus disposée que dans un seul bras, toujours le même; le bras choisi est celui qui a été le moins visité au cours des 6 premiers essais. L'épreuve se poursuit alors jusqu'à ce que l'animal atteigne un critère de 5 bonnes réponses sur 5 essais consécutifs.
Rétention de la discrimination spatiale (J4) : Elle se déroule dans les mêmes conditions que l'acquisition (même bras renforcé) et se poursuit pendant un minimum de 10 essais ou, au-delà, jusqu'à l'atteinte du critère de 5/5. Le nombre d'essais est limité à 20. […]

[2] = test system: souris mâles de la lignée BALB/c; conditions: 10 mg/kg, mouse; earlier results (Jaffard et coll., Behav. Pharmacol., 1991); cited from earlier work

Structure (SMILES)	Acquisition de la discrimination : Nombre de réponses correctes sur les 20 premiers essais de l'épreuve [1]	Rétention de la discrimination : Essais au critère [1]	Rétention : Réponses correctes sur les dix premiers essais ([1]; day 4)	Rétention : Réponses correctes sur les cinq premiers essais ([1]; day 4)	alternance spontanée, acquisition et rétention d'une discrimination simple (labyrinthe en T) [2]
CN1c2ccccc2C(NCCCCCCC(=O)O)c2ccc(Cl)cc2S1(=O)=O (single isomer, unassigned; (+)) [Isomère (+), (+)7-[(3-chloro-6-méthyl-5,5-dioxo-6,11-dihydrodibenzo[c,f]-[1,2]-thiazepin-11-yl)amino]heptanoatede sodium]	14,83 ± 0,75	7,83 ± 0,74 essais	performances supérieures (p<0,02) à celles du groupe tianeptine	3,92 ± 0,15	
CN1c2ccccc2C(NCCCCCCC(=O)O)c2ccc(Cl)cc2S1(=O)=O (racemic) [Tianeptine, tianeptine]	12,75 ± 0,77	8,58 ± 0,60 essais		n'a pas d'effet	facilitait
